Reference: patent US8530461B2 (Boehringer Ingelheim International GmbH, priority 2011, dated 2013)

Target: T1, human ACC2 (Homo sapiens, UniProt O00763)
T1 construct: made in house; host or cells: insect cells (baculoviral expression system)
Test: ACC2 assay, spectrophotometric 384 well assay (NADH-linked, coupled lactate dehydrogenase/pyruvate kinase)
Assay type: biochemical
Conditions: ACC2 assay; human ACC2 construct lacking 128 N-terminal amino acids; 25° C., 340 nm, 15 minutes; read-out: IC50
Procedure: Spectrophotometric 384 Well Assay
Malonyl CoA formation by acetyl CoA carboxylases is stoichometrically linked to the consumption of ATP. ACC2 activity is measured in a NADH-linked kinetic method measuring ADP generated during the ACC reaction using a coupled lactate dehydrogenase/pyruvate kinase reaction.
For biological testing, a human ACC2 construct which lacks the 128 amino acids at the N-terminus for increased solubility (nt 385-6966 in Genbank entry AJ575592) is cloned. The protein is then expressed in insect cells using a baculoviral expression system. Protein purification is performed by anion exchange.
All compounds are dissolved in dimethyl sulfoxide (DMSO) to a concentration of 10 mM.
Assay reactions are then carried out in 384-well plates, with hACC2 in an appropriate dilution and at final assay concentrations (f.c.) of 100 mM Tris (pH 7.5), 10 mM trisodium citrate, 25 mM KHCO3, 10 mM MgCl2, 0.5 mg/ml BSA, 3.75 mM reduced L-glutathione, 15 U/ml lactate dehydrogenase, 0.5 mM phosphoenolpyruvate, 15 U/ml pyruvate kinase, compounds at different concentrations at final DMSO concentrations of 1%.
The enzymatic reaction is then started by addition of a mixture of NADH, acetyl Coenzyme A (both […].) and ATP (500 uM f.c.). The decrease of the optical density (slope S) is then determined at 25° C. at a wavelength of 340 nm over 15 minutes in a spectrophotometric reader.
Each assay microtiter plate contains wells with vehicle instead of compound as controls for the non-inhibited enzyme (100% CTL; ‘HIGH’) and wells without acetyl-CoA as controls for non-specific NADH degradation (0% CTL; ‘LOW’).
The slope S is used for calculation of % CTL=(S(compound)−S(‘LOW’))/(S(‘HIGH’)−S(‘LOW’))100. Compounds will give values between 100% CTL (no inhibition) and 0% CTL (complete inhibition).
For IC50 value determination, the sample slope in the presence of the test compound after subtraction of the low controls (S(compound)−S(‘LOW’)) are used.
An IC50 value is derived from the compound slopes at different dosages after subtraction of the low controls (S(compound)−S(‘LOW’)) by non-linear regression curve fitting (equation y=(A+((B−A)/(1+((C/x)^D))))).

T1 sequence (O00763 129-2458 limits assumed): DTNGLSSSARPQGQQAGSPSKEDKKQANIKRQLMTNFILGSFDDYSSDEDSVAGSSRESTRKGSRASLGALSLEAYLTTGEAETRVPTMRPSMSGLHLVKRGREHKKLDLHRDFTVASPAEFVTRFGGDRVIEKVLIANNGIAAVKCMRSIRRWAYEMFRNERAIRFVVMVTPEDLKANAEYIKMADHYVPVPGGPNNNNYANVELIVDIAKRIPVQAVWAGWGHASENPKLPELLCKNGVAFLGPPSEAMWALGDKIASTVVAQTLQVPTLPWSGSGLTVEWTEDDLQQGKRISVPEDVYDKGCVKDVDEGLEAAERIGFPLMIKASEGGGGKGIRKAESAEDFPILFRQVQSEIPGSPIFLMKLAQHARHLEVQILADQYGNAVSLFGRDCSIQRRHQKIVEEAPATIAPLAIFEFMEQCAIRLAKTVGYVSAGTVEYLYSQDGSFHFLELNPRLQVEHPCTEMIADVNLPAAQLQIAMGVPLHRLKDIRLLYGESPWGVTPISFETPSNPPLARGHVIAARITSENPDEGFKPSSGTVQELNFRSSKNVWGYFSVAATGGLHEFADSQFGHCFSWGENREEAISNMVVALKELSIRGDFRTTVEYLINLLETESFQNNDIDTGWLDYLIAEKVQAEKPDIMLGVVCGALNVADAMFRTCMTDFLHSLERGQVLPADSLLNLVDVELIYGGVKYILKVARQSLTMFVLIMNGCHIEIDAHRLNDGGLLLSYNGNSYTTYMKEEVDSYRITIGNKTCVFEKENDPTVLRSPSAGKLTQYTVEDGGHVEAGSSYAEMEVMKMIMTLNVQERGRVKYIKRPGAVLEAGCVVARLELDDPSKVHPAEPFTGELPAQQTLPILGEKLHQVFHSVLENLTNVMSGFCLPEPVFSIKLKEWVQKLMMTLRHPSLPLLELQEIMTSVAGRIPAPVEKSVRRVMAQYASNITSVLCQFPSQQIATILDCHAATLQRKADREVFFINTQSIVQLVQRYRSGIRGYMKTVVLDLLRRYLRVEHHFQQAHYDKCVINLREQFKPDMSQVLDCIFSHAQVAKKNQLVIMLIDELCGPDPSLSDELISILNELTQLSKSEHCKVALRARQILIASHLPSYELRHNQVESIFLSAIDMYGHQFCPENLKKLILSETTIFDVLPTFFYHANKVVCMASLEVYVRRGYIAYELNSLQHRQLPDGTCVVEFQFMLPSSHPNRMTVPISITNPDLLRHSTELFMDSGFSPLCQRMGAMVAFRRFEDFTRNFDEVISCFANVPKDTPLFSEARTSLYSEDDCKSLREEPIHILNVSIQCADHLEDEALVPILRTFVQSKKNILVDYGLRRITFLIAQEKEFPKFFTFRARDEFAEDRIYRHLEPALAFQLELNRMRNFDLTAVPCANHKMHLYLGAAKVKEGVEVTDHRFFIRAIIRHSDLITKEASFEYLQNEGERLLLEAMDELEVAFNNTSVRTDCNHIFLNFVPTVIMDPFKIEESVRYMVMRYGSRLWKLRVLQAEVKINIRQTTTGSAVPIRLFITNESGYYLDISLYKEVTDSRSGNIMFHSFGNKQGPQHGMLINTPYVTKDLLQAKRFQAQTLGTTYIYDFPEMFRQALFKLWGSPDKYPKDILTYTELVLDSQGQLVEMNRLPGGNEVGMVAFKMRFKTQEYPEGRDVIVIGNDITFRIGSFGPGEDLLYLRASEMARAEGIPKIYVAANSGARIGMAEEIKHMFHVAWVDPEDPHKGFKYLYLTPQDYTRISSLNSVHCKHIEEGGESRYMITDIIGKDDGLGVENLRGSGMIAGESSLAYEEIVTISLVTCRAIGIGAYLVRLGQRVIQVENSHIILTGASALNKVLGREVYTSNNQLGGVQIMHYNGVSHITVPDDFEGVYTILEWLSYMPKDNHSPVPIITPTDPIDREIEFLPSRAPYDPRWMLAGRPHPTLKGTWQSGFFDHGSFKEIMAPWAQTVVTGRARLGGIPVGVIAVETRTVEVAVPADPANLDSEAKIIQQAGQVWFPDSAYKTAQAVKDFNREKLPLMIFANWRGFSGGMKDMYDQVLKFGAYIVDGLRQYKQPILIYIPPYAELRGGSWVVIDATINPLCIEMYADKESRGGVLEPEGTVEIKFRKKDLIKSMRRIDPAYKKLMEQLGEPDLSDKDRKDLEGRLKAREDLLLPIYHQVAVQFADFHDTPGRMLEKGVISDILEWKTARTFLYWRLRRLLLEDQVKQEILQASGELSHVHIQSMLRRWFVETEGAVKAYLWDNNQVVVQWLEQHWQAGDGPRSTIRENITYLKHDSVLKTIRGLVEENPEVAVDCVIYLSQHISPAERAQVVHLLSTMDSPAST

IC50 [nM]	Compound
1560	CCOc1c(F)cc(OC2CN(c3ccc([C@H](C)NC(=O)C4CC4)cc3)C2)cc1F [Example 10.30]
2080	C[C@H](NC(=O)C1CC1)c1ccc(N2CC(Oc3ccc4c(c3)OCO4)C2)cc1 [Example 10.28]
100	CC(=O)N[C@@H](C)c1ccc(N2CC(Oc3ccnc(OCC4CC4(F)F)c3)C2)cc1 (some centres unmarked) [Example 11.5]
790	CC(=O)N[C@@H](C)c1ccc(N2CC(Oc3ccccc3)C2)cc1 [Example 10.12]
2230	CC(=O)N[C@@H](C)c1ccc(N2CC(Oc3ccc(Cl)cc3F)C2)cc1 [Example 10.16]
60	CC(=O)N[C@@H](C)c1ccc(N2CC(Oc3ccnc(N4CCCC4)n3)C2)cc1 [Example 13.2, (S)—N-(1-{4-[3-(2-Pyrrolidin-1-yl-pyrimidin-4-yloxy)-azetidin-1-yl]-phenyl}-ethyl)-acetamide]
570	COc1ccc(OC2CN(c3ccc([C@H](C)NC(C)=O)cc3)C2)c(Cl)c1 [Example 10.29]
5570	CCOc1ccc(OC2CN(c3ccc([C@H](C)NC(=O)N(C)CC4CC4)cc3)C2)cc1 [Example 4.5]
80	CC(=O)N[C@@H](C)c1ccc(N2CC(Oc3ccnc(OCC4CC4)c3)C2)cc1 [Example 11.1, (S)—N-(1-{4-[3-(2-Cyclopropylmethoxy-pyridin-4-yloxy)-azetidin-1-yl]-phenyl}-ethyl)-acetamide]
560	COc1ccc(OC2CN(c3ccc([C@H](C)NC(C)=O)cc3)C2)c(F)c1F [Example 10.18]
140	COCCOc1ccc(OC2CN(c3ccc([C@H](C)NC(C)=O)cc3)C2)cc1 [Example 10.19]
610	CC(=O)N[C@@H](C)c1ccc(N2CC(Oc3ccc(C)cc3)C2)cc1 [Example 10.14]
2260	CCOc1ccc(OC2CN(c3ccc([C@H](C)NC(=O)C4CC4)cc3)C2)c(F)c1F [Example 10.24]
120	CCOc1ccc(OC2CN(c3ccc([C@H](C)NC(C)=O)cc3)C2)c(F)c1 [Example 7.1, (S)—N-(1-{4-[3-(4-Ethoxy-2-fluoro-phenoxy)-azetidin-1-yl]-phenyl}-ethyl)-acetamide]
3370	COc1ccc(OC2CN(c3ccc([C@H](C)NC(=O)C4CC4)cc3)C2)cn1 [Example 10.25]
1610	CCOc1ccc(OC2CN(c3ccc([C@H](C)NC(=O)N(CC#N)C4CC4)cc3)C2)cc1 [Example 4.12]

IC50 [nM]	Compound
730	CCCOc1cccc(OC2CN(c3ccc([C@H](C)NC(C)=O)cc3)C2)n1 [Example 12.3]
130	COCCOc1ccc(OC2CN(c3ccc([C@H](C)NC(=O)c4sc(NC(C)=O)nc4C)cc3)C2)cc1 [Example 16.1, (S)-2-Acetylamino-4-methyl-thiazole-5-carboxylic acid [1-(4-{3-[4-(2-methoxy-ethoxy)-phenoxy]-azetidin-1-yl}-phenyl)-ethyl]-amide]
370	CCOc1ccc(OC2CN(c3ccc([C@H](C)NC(=O)N(C)c4cccnc4)cc3)C2)cc1 [Example 4.13]
230	CC(C)COc1cc(OC2CN(c3ccc(C(C)NC(=O)C4CC4)cc3)C2)ccn1 (centres unmarked) [Example 11.7]
50	CC(=O)N[C@@H](C)c1ccc(N2CC(Oc3cccc(C(C)(C)C)n3)C2)cc1 [Example 12.17]
1610	CCOc1ccc(OC2CN(c3ccc([C@H](C)NC(=O)N4CC(O)C4)cc3)C2)cc1 [Example 4.4]
3100	CCOc1ccc(OC2CN(c3ccc([C@H](C)NC(=O)N(C)C(C)C)cc3)C2)cc1 [Example 4.10]
1390	CCOc1ccc(OC2CN(c3ccc([C@H](C)NC(=O)N(C)CCOC)cc3)C2)cc1 [Example 4.8]
320	CC(=O)N[C@@H](C)c1ccc(N2CC(Oc3ccc4c(c3)OCO4)C2)cc1 [Example 10.13]
100	CC(=O)N[C@@H](C)c1ccc(N2CC(Oc3cccc(C(F)F)n3)C2)cc1 [Example 12.12]
220	CC(=O)N[C@@H](C)c1ccc(N2CC(Oc3cccc(C4CCC4)n3)C2)cc1 [Example 12.14]
1380	CC(=O)N[C@@H](C)c1ccc(N2CC(Oc3cccc(OCC4CC4)n3)C2)cc1 [Example 12.2]
380	CCOc1cccc(OC2CN(c3ccc([C@H](C)NC(C)=O)cc3)C2)n1 [Example 12.16]
170	Cc1cc2cc(OC3CN(c4ccc([C@H](C)NC(=O)C5CC5)cc4)C3)ccc2o1 [Example 10.27]
370	CCC(C)c1ccc(OC2CN(c3ccc([C@H](C)NC(=O)C4CC4)cc3)C2)cc1 (some centres unmarked) [Example 10.26]
90	CC(=O)N[C@@H](C)c1ccc(N2CC(Oc3cccc(N(C)C)n3)C2)cc1 [Example 12.6]

The remaining lines, values behind:

Compound	IC50 [nM]
CCOc1ccc(OC2CN(c3ccc([C@H](C)NC(=O)C4CC(F)C4)cc3)C2)cc1 (some centres unmarked) [Example 1.24]	220
C#CC(C)(C)C(=O)N[C@@H](C)c1ccc(N2CC(Oc3ccc(OCC)cc3)C2)cc1 [Example 1.63]	930
CCOc1ccc(OC2CN(c3ccc([C@H](C)NC(=O)c4scnc4C)cc3)C2)cc1 [Example 1.38]	780
CCOc1ccc(OC2CN(c3ccc([C@H](C)NC(=O)c4sc(NC(C)=O)nc4-c4ccccc4)cc3)C2)cc1 [Example 1.66]	550
CCOc1ccc(OC2CN(c3ccc([C@H](C)NC(=O)C(C)(C)F)cc3)C2)cc1 [Example 1.17]	280
CCOc1ccc(OC2CN(c3ccc([C@H](C)NC(=O)Cn4cncn4)cc3)C2)cc1 [Example 1.61]	1440
CCOc1ccc(OC2CN(c3ccc([C@H](C)NC(=O)c4cocn4)cc3)C2)cc1 [Example 1.20]	330
CCOc1ccc(OC2CN(c3ccc([C@H](C)NC(=O)Cn4ccnc4)cc3)C2)cc1 [Example 1.13]	480
CCOc1ccc(OC2CN(c3ccc([C@H](C)NC(=O)CCOC)cc3)C2)cc1 [Example 1.67]	1290
CCOc1ccc(OC2CN(c3ccc([C@H](C)NC(=O)c4cnon4)cc3)C2)cc1 [Example 1.84]	730
CCOc1ccc(OC2CN(c3ccc([C@H](C)NC(=O)c4ccnn4C)cc3)C2)cc1 [Example 2.2]	790
CCOc1ccc(OC2CN(c3ccc([C@H](C)NC(=O)c4ccoc4C)cc3)C2)cc1 [Example 2.3]	820
CCOc1ccc(OC2CN(c3ccc([C@H](C)NC(=O)C(C)(C)C#N)cc3)C2)cc1 [Example 1.68]	1520
CCOc1ccc(OC2CN(c3ccc([C@H](C)NC(=O)c4oc(C)nc4C)cc3)C2)cc1 [Example 1.39]	2250
CCOc1ccc(OC2CN(c3ccc([C@H](C)NC(=O)C(C)O)cc3)C2)cc1 (some centres unmarked) [Example 1.79]	1720
CCOc1ccc(OC2CN(c3ccc([C@H](C)NC(=O)C(F)F)cc3)C2)cc1 [Example 1.73]	160
CCOc1ccc(OC2CN(c3ccc([C@H](C)NC(=O)CC)cc3)C2)cc1 [Example 1.2]	150
CCOc1ccc(OC2CN(c3ccc([C@H](C)NC(=O)Cc4ccccn4)cc3)C2)cc1 [Example 1.81]	2330
CCOc1ccc(OC2CN(c3ccc([C@H](C)NC(=O)c4ccon4)cc3)C2)cc1 [Example 1.36]	1610
CCOc1ccc(OC2CN(c3ccc([C@H](C)NC(=O)c4c[nH]cn4)cc3)C2)cc1 [Example 1.29]	1160
CCCC(=O)N[C@@H](C)c1ccc(N2CC(Oc3ccc(OCC)cc3)C2)cc1 [Example 1.6]	280
CCOc1ccc(OC2CN(c3ccc([C@H](C)NC(=O)Cc4cc[nH]c4)cc3)C2)cc1 [Example 1.49]	1470
CCOc1ccc(OC2CN(c3ccc([C@H](C)NC(=O)C(C)C)cc3)C2)cc1 [Example 1.5]	120
CCOc1ccc(OC2CN(c3ccc([C@H](C)NC(=O)c4cncc(NC(C)=O)c4)cc3)C2)cc1 [Example 1.78]	360
CCOc1ccc(OC2CN(c3ccc([C@H](C)NC(=O)C4CNC(=O)C4)cc3)C2)cc1 (some centres unmarked) [Example 1.57]	1300
C[C@H](NC(=O)c1cncs1)c1ccc(N2CC(Oc3ccc(OCC4CC4)cc3)C2)cc1 [Example 1.90]	90
CCOc1ccc(OC2CN(c3ccc([C@H](C)NC(=O)C4(C)COC4)cc3)C2)cc1 [Example 1.23]	1470
CCOc1ccc(OC2CN(c3ccc([C@H](C)NC(=O)C(C)C#N)cc3)C2)cc1 (some centres unmarked) [Example 1.82]	270
CCOc1ccc(OC2CN(c3ccc([C@H](C)NC(=O)c4cncn4C)cc3)C2)cc1 [Example 1.34]	2060
CCOc1ccc(OC2CN(c3ccc([C@H](C)NC(=O)C4CC(=O)N(C)C4)cc3)C2)cc1 (some centres unmarked) [Example 1.46]	1730
